According to ChEMBL document CHEMBL5729087, “Pyranopyrazole and pyrazolopyridine immunomodulators for treatment of autoimmune diseases” (2022):

Columns and labels:
Coagulation factor XII = biological target: T1, Coagulation factor XII (Homo sapiens, UniProt P00748); assay: Factor XIIa (FXIIa) Inhibitory Activity: In a 96-well clear bottom plate, 80 μl of assay buffer was added to each well. Assay buffer consists of 0.5× Hank's Balanced Salt Solution (Invitrogen), buffered with 25 mM HEPES pH 7.4 (Invitrogen) and 0.5× Tris-buffered saline with Tween-20 0.05% (Santa Cruz Biotechnology). Test compounds were first dissolved in DMSO (Sigma) and then 4 μl were added to test wells containing assay buffer. Serial dilutions using an automated multi-channel pipette were used to generate a concentration range of approximately 1-100 μM. Human FXIIa (Enzyme Research Labs) was diluted in assay buffer to a final concentration of 12.5 nM. 80 μl of this enzyme solution was added to the assay wells. The enzyme/compound mixtures were incubated for 10 minutes at room temperature. Chromogenic substrate (Pefachrome XIIa; Enzyme Research Labs) was added to assay wells at a final concentration of 400 μM. The assay plate was spun for 1 minute at 1500 g and then read at 37° C. in a SpectraMax M2 plate reader (λ=405 nm). Activity was quantified as the rate of change in absorbance, which corresponds to the rate of substrate cleavage. IC50 values were determined as the concentration of inhibitor that produced 50% of the rate of change of control wells without any inhibitor. For compounds with activity <1 μM, the assay was repeated with a lower concentration range, typically from 10-1000 nM.
T1 sequence (P00748 whole entry): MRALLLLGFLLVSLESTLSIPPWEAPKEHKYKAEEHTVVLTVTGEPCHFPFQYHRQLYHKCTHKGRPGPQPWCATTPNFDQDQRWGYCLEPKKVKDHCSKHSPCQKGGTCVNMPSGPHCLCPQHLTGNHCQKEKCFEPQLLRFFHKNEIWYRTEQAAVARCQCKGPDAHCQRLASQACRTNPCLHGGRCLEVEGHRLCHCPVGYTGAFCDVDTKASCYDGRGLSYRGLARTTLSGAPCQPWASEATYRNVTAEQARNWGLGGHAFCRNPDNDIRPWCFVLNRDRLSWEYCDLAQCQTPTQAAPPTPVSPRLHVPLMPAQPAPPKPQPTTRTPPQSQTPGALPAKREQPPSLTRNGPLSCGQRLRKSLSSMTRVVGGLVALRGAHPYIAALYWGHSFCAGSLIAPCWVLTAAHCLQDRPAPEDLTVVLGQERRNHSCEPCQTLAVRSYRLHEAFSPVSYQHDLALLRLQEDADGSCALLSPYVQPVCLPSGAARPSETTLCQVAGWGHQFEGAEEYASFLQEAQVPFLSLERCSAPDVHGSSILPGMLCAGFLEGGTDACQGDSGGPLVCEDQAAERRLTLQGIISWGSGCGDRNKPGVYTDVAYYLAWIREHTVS

Prothrombin = Prothrombin (Homo sapiens, UniProt P00734); assay: Counterscreens for Selectivity: Thrombin. In a 96-well white opaque plate, 80 μl of assay buffer was added to each well. Test compounds were added, and serially diluted as above, to generate a concentration range of approximately 1-100 μM. Human alpha-thrombin (Enzyme Research Labs) was diluted in assay buffer to a final concentration of 12.5 nM. 80 μl of this enzyme solution was added to the assay wells. The enzyme/compound mixtures were incubated for 10 minutes at room temperature. Fluorogenic substrate (Boc-Val-Pro-Arg-7-amido-4-methylcoumarin; Sigma) was added to assay wells at a final concentration of 20 μM. The assay plate was spun for 1 minute at 1500 g and then read at 37° C. in a SpectraMax M2 plate reader (λex=380 nm and λem=460 nm). Activity was quantified as the rate of change in fluorescence, which corresponds to the rate of substrate cleavage. IC50 values were determined as the concentration of inhibitor that produced 50% of the rate of change of control wells without any inhibitor. For compounds with activity <1 μM, the assay was repeated with a lower concentration range, typically from 10-1000 nM.

Row | IC50 (Coagulation factor XII) [µM] | IC50 (Prothrombin) [µM] | SMILES
1 | 60 | – | CC(C)N1CCc2c(N)nn(C(=O)C3CCNc4ccc(F)cc43)c2C1 (stereo not given)
2 | 0.15 | > 150 | Cc1cc2c(C(=O)n3nc4c(c3N)CCNC4)cccc2[nH]1
3 | 0.25 | > 75 | CN(C)S(=O)(=O)N1CCc2c(nn(C(=O)C3CCNc4ccccc43)c2N)C1 (stereo not given)
